This note sets out measurements from patent publication US11565992B2, “Methods for separation of azeotrope or azeotrope-like compositions of trifluoroiodomethane (CF3I) and trifluoroacetyl chloride (CF3COCI)” (Honeywell International Inc., priority 2020, dated 2023).

Each structure is given as a SMILES string.

A short description of series [1]: Differential solubility in toluene (PTx method, NRTL model). To be noted: around ambient conditions; for solubility in toluene: solvent toluene, from NRTL model generated from the PTx data (FIG. 5).
From the text: One such technique, known as the PTx method, collects measurements of the total saturation pressure (“P”) exerted by mixtures of known compositions (“x”) at fixed temperatures (“T”) and cell volumes. […] Using data collected from the PTx experiment, as well as pure component properties of constituents of the mixtures, the thermodynamic properties of the mixtures can be accurately characterized by fitting the component's interaction parameters in a well-defined thermodynamic equation; one such equation is the Nonrandom, Two-liquid (NRTL) activity coefficient model by Renon and Prausnitz (Local Compositions in Thermodynamic Excess Functions for Liquid Mixtures, AIChE Journal, Vol. 14, January 1968, pp. 135-144).
(§1) From a well-characterized thermodynamic model (such as NRTL fit against PTx data), solubility curves can be generated. The solubility is defined as the liquid composition of the solute in the liquid phase at saturation, generally as a function of pressure and temperature. By comparing solubility curves for different solutes, the solvent's selectivity (i.e. preference) towards a particular solute can be identified; the larger the selectivity the more the solvent prefers to absorb one species while rejecting the other.
A set of volume calibrated PTx cells were used to measure the solubility characteristics of trifluoroiodomethane (CF3I) in toluene as well as trifluoroacetyl chloride (CF3COCl) in toluene. Mixtures of trifluoroiodomethane (CF3I) and toluene as well as trifluoroacetyl chloride (CF3COCl) and toluene were gravimetrically prepared into evacuated PTx cells. […] Once at equilibrium, recognized when temperature and pressures of each cell remain stable for several hours, the local temperature and saturation pressures of each cell were recorded and adjustments for the next set point were made. […]
(§2) Using the NRTL model generated from the PTx data, the solubility of both trifluoroiodomethane (CF3I) and trifluoroacetyl chloride (CF3COCl) for a given temperature and pressure can be determined and compared.
The nature of series [2]: Differential solubility in acetonitrile (PTx method, NRTL model). To be noted: at or near ambient conditions; for solubility in acetonitrile: solvent acetonitrile, from NRTL model generated from the PTx data (FIG. 7).
From the text: Static Vapor-Liquid Equilibrium Methods are a class of experimental techniques that can be used to identify thermodynamic interactions between a solvent (i.e. absorbing species) and a target solute (i.e. species being absorbed). One such technique, known as the PTx method, collects measurements of the total saturation pressure (“P”) exerted by mixtures of known compositions (“x”) at fixed temperatures (“T”) and cell volumes. […] Using data collected from the PTx experiment, as well as pure component properties of constituents of the mixtures, the thermodynamic properties of the mixtures can be accurately characterized by fitting the component's interaction parameters in a well-defined thermodynamic equation; one such equation is the Nonrandom, Two-liquid (NRTL) activity coefficient model by Renon and Prausnitz (Local Compositions in Thermodynamic Excess Functions for Liquid Mixtures, AIChE Journal, Vol. 14, January 1968, pp. 135-144).
as §1
Following the same procedure as described in Example 7A, the PTx behavior of trifluoroiodomethane (CF3I) with acetonitrile and trifluoroacetyl chloride (CF3COCl) with acetonitrile was studied at temperatures of −10° C., 10° C., 30° C., and 50° C. […]
as §2
Series [3] in a line: Differential solubility in mineral oil (PTx method, NRTL model). As to conditions: solvent mineral oil; at or near ambient conditions; from NRTL model generated from the PTx data (FIG. 6).
From the text: as §1
Following the same procedure described in Example 7A, the PTx behavior of trifluoroiodomethane (CF3I) with mineral oil and trifluoroacetyl chloride (CF3COCl) with mineral oil was studied at temperatures of 0° C., 20° C., 40° C., and 60° C. Unlike toluene (a single aromatic hydrocarbon entity), the mineral oil solvent comprised a mixture several types of hydrocarbons such as alkanes, cycloalkanes, and others. From the pressure-temperature-composition data, the binary interaction parameters of trifluoroiodomethane (CF3I) with mineral oil and trifluoroacetyl chloride (CF3COCl) with mineral oil for the NRTL activity coefficient model were identified.
as §2

In the case of `Cc1ccccc1` [toluene], in series [1] (toluene), the “selectivity of solvent towards CF3I over CF3COCl” value is listed as “about 3.5 times”.

As to `CC#N` [acetonitrile], the “selectivity of solvent towards CF3I over CF3COCl” value in series [2] (acetonitrile) is “about 2.5 times”.

`O=C(Cl)C(F)(F)F` [trifluoroacetyl chloride]: the solubility in toluene result in series [1] is “about 11.6 mass %”. The “solubility in mineral oil” value in series [3] is reported as “about 3.6 mass %”. Also, in series [2], the solubility in acetonitrile entry was “about 15.8 mass %”.

For `FC(F)(F)I` [trifluoroiodomethane], in series [1], the solubility in toluene entry is recorded as “about 40.8 mass %”. In series [3], the “solubility in mineral oil” value was “about 12.2 mass %”. In series [2], the solubility in acetonitrile entry was “about 39.0 mass %”.
